In patent US20250361307A1, “COMBINATION THERAPIES FOR TREATING HYPERPROLIFERATIVE DISORDERS” (X4 Pharmaceuticals, Inc., priority 2022, published 2025):

Key:
[1] = test system: MWCL-1 cells; test: Sensitivity of MWCL-1 cells in coculture with HS-5 BMSCs (apoptosis, IgM); format: cell-based; conditions: HS-5 BMSC coculture vs monoculture (FIG. 10A-D)
Method: (§1) BMSCs were cultured in 96-, 48-, or 24-well plates until 90% confluence. MWCL-1 cells (density≈2×10^5 cells/mL) were pretreated with indicated concentration of mavorixafor together with indicated concentrations of B-cell-targeted inhibitors in medium containing 4% FBS for 1 hour and transferred to the BMSC monolayer. Cells were coincubated for 48 or 72 hours followed by measurement of cell viability, apoptosis, IgM, and IL-6 release.
(§2) The IgM levels were quantitated using a human IgM Enzyme-linked immunosorbent assay (ELISA) kit (Abcam, #ab214568) according to the manufacturer's instructions. IL-6 levels were quantitated using an IL-6 ELISA MAX™ kit (BioLegend, #430515) per manufacturer's recommendations. For all ELISA kits, plates were developed with 3,3′,5,5′-tetramethylbenzidine (TMB) development solution or a biotinylated antihuman IL-6 detection antibody/avidin horseradish peroxidase (HRP) solution. The reaction was stopped with the stop solution, and absorbance was read at 450 nm with a microplate reader (Synergy™ HT, BioTek Instruments).
(§3) Cells were washed with PBS, resuspended in Annexin V binding buffer (BioLegend, #422201), and stained with Alexa Fluor® 647 Annexin V (BioLegend, #640943), propidium iodide (BD Pharmingen, #51-66211E), and CD45 antibody (BioLegend, #368502) for 15 minutes at room temperature and analyzed by flow cytometry.

[2] = test system: MWCL-1 cells; test: Apoptosis of MWCL-1 cells in monoculture (Annexin V flow cytometry); format: cell-based
Method: BMSCs were cultured in 96-, 48-, or 24-well plates until 90% confluence. […] Cells were coincubated for 48 or 72 hours followed by measurement of cell viability, apoptosis, IgM, and IL-6 release.
as §3

[3] = test system: MWCL-1 cells; test: Apoptosis of MWCL-1 cells in coculture with HS-27A BMSCs; format: cell-based; conditions: for % apoptotic cells: with BMSC (HS-27a) (FIG. 13A)
Method: as §1, §3

[4] = target: T1, BCL-w (Homo sapiens, UniProt Q92843); conditions: cited from earlier work
T1 sequence (Q92843 1-193): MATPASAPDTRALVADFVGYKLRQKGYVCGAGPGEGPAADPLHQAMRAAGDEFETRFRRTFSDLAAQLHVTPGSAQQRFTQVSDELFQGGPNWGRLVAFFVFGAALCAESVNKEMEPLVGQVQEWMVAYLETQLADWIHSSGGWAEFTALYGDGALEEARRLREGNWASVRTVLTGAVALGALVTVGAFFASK

[5] = target: BCL-XL (Homo sapiens, UniProt Q07817); conditions: cited from earlier work
[6] = target: BCL-2 (Homo sapiens, UniProt P10415); conditions: cited from earlier work
[7] = Terminal half-life of mavorixafor; conditions: in vivo
[8] = Solubility of mavorixafor; format: physicochemical
[9] = test system: HS-27A and HS-5 BMSCs; test: Apoptosis of BMSCs cocultured with WM cells; format: cell-based; conditions: WM cell-BMSC coculture, mavorixafor alone (FIG. 11A-B)
Method: BMSCs were cultured in 96-, 48-, or 24-well plates until 90% confluence. […] Cells were coincubated for 48 or 72 hours followed by measurement of cell viability, apoptosis, IgM, and IL-6 release. Cells were washed with PBS, resuspended in Annexin V binding buffer (BioLegend, #422201), and stained with Alexa Fluor® 647 Annexin V (BioLegend, #640943), propidium iodide (BD Pharmingen, #51-66211E), and CD45 antibody (BioLegend, #368502) for 15 minutes at room temperature and analyzed by flow cytometry.

[10] = test system: WM cell-BMSC coculture; test: IL-6 release in WM/BMSC coculture model (ELISA); format: cell-based; conditions: WM cell-BMSC coculture (FIG. 12)
Method: as §2, with “BMSCs were cultured in 96-, 48-, or 24-well plates until 90% confluence. […] Cells were coincubated for 48 or 72 hours followed by measurement of cell viability, apoptosis, IgM, and IL-6 release. The IgM” for “The IgM”

[11] = test system: cleavage of caspase-3 and PARP in MWCL-1 cells; test: Immunoblotting of apoptotic markers; format: cell-based; conditions: MWCL-1 monoculture (FIG. 4G)
Method: Whole cells were lysed by radioimmunoprecipitation assay (RIPA) lysis buffer (Sigma-Aldrich, #R0278) with protease inhibitor cocktail (Roche Custom Biotech, #11697498001). Lysates were separated by sodium dodecyl sulfate polyacrylamide gel-electrophoresis (SDS-PAGE) electrophoresis and transferred to Trans-Blot® Turbo™ Mini PVDF Transfer Packs (Bio-Rad). Membranes were incubated with primary antibodies: anti-poly adenosine diphosphate (ADP)-ribose polymerase (PARP) (1:1000, Cell Signaling, #9542); Anti-Caspase 3 (1:1000, Cell Signaling, #9662) and antitubulin (1:5000, R&D, #MAB9344). Secondary HRP-conjugated antibodies (Abcam) were used at 1:10.000 dilution. Membranes were developed with enhanced chemiluminescence reagent (Amersham™ ECL Prime Western Blotting Detection Reagent, GE Healthcare) on LAS4000 gel documentation system.

[12] = test system: MWCL-1 cells; test: BMSC-induced IgM hypersecretion, MWCL-1/HS-27A coculture (ELISA); format: cell-based
Method: as §2, with “BMSCs were cultured in 96-, 48-, or 24-well plates until 90% confluence. […] Cells were coincubated for 48 or 72 hours followed by measurement of cell viability, apoptosis, IgM, and IL-6 release. The IgM” for “The IgM”

[13] = patients with WHIM syndrome; cited from earlier work
[14] = test system: MWCL-1 cells; test: Transwell migration assay; format: cell-based
Method: Cell migration toward CXCL12 gradient or BMSC monolayer was determined using the Transwell migration assay. MWCL-1 cells were stained with 500 nM Calcein AM (Invitrogen, #C1430) and preincubated with mavorixafor for 15 minutes before transfer (5×10^5 cells) to an upper well of a […] pore size Transwell® (Corning, #3421). […] Wells without CXCL12 were treated with 10 μM LIT-927 (Selleck Chemicals, #S8813), a neutraligand of CXCL12, to serve as background control. After 4 hours of incubation, cells that migrated to the lower chambers were collected and resuspended in Dulbecco's phosphate-buffered saline (DPBS) containing Precision Count Beads™ (BioLegend, #424902). Migrated cells and counting beads were counted by flow cytometry

[15] = test system: ALL cells; conditions: cited from earlier work
[16] = test system: MWCL-1 cells; test: Adhesion assay of MWCL-1 cells to BMSC monolayer; format: cell-based; conditions: pretreatment, 4 hours (FIG. 3A)
Method: MWCL-1 cells were labeled with 1 μM Calcein AM. After 10 minutes at 37° C., cells were washed, resuspended in medium containing 1% FBS, and treated with compounds for 30 minutes (2.25× 10^5 cells/mL). MWCL-1 cells were transferred to the BMSC monolayer. After 4 hours, nonadherent cells were removed by gently washing with phosphate-buffered saline (PBS). Remaining cells were harvested, resuspended in flow buffer (Hanks balanced salt solution+20 mM HEPES+0.5% […]) and analyzed by flow cytometry.

[17] = test system: MWCL-1 cells; test: Cell viability of MWCL-1 cells (CellTiter-Glo); format: cell-based; conditions: tested concentrations, 4 hours, data not shown
[18] = test system: CXCL12-induced Ca2+ mobilization in MWCL-1 cells; test: Calcium mobilization assay (Fluo-4 AM); format: cell-based; conditions: dose-dependent (FIG. 3D)
Method: MWCL-1 cells (2×10^5 cells/well) were seeded in transparent bottom, black 96-well plates coated with poly-L-lysine (BioCoat®, Corning) and serum-starved (medium with 1% FBS) for 24 hours. Medium was removed and cells were loaded with 100 μL of fluo-4 AM (3 μM, Invitrogen, #F14201) dye solution for 45 minutes at 37° C. Subsequently, 100 μL of assay buffer alone or assay buffer with compound dilutions was added, and the plates were equilibrated in the plate reader for an additional 20 minutes at 37° C. The CXCL12 was injected with simultaneous measurement of fluorescent signal (FlexStation® 3 Multi-Mode Microplate Reader, Molecular Devices). Raw traces were analyzed in SoftMax®Pro 7 Software (Molecular Devices). The arbitrary units were calculated as the difference between maximal and minimal signal after treatment injection, normalized to the baseline signal before injection.

[19] = test system: MWCL-1 cells; test: IL-6-mediated IgM secretion in MWCL-1 cells (ELISA); format: cell-based; conditions: exogenous IL-6 (FIG. 1F)
Source text: as §2

[20] = test system: human WM cells; conditions: mouse, in vivo; cited from earlier work
[21] = test system: WM mouse xenograft; conditions: cited from earlier work
[22] = test system: CXCR4 cell surface expression in MWCL-1 cells; test: CXCR4 cell surface expression in MWCL-1 cells (flow cytometry); format: cell-based; conditions: MWCL-1 cocultured with HS-27A BMSCs (FIG. 2B)
Method: Flow experiments were performed with the CytoFLEX S Flow Cytometer (Beckman Coulter). Samples were analyzed using FCS Express Software (De Novo Software).
[…] Cells were stained with CXCR4 antibody (BD Pharmigen, #555976) and measured by flow cytometry.

[23] = absence of bone marrow stroma, 72 hours (FIG. 15)

Chain of BCL-XL (Q07817 whole entry): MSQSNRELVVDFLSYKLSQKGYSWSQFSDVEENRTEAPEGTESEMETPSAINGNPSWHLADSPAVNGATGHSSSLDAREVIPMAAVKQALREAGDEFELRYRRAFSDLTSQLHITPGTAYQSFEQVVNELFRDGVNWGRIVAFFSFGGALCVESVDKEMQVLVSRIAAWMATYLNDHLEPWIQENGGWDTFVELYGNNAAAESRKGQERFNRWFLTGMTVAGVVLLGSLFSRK
Chain of BCL-2 (P10415 whole entry): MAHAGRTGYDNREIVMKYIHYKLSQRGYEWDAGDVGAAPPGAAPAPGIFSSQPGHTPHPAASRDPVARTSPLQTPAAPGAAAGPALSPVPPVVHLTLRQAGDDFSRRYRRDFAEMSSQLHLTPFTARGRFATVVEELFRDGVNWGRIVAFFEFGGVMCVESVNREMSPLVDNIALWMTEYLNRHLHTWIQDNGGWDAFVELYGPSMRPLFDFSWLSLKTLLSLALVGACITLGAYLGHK

C=CC(=O)N1CCC[C@@H](n2nc(-c3ccc(Oc4ccccc4)cc3)c3c(N)ncnc32)C1 [Ibrutinib, 1-[(3R)-3-[4-amino-3-(4-phenoxyphenyl)-1Hpyrazolo[3,4-d]pyrimidin-1-yl]-1-piperidinyl]-2-propen-1-one, reference compound]
sensitivity of MWCL-1 cells to the drug in HS-5 BMSC coculture [1]: reduced the sensitivity | % apoptotic cells ([2]; absence of BMSC (FIG. 13A)): approximately 60% | % apoptotic cells [3]: neither Ibrutinib nor Tocilizumab as a single therapy increased

CN(C)CC[C@H](CSc1ccccc1)Nc1ccc(S(=O)(=O)NC(=O)c2ccc(N3CCN(Cc4ccccc4-c4ccc(Cl)cc4)CC3)cc2)cc1[N+](=O)[O-] [ABT-737]
binding affinity to BCL-w [4]: < 1 nmol/L | binding affinity to BCL-XL [5]: < 1 nmol/L | binding affinity to BCL-2 [6]: < 1 nmol/L

NCCCCN(Cc1nc2ccccc2[nH]1)[C@H]1CCCc2cccnc21 [Mavorixafor]
half-life [7]: 12 to 24 h | apoptosis efficacy of ixazomib when mavorixafor is added [2, 23]: Enhances | apoptosis of MWCL-1 cells, single agent ([2]; monoculture (FIG. 8A-F, FIG. 4A-F)): minor increase | solubility ([8]; aqueous buffer, pH range 3.0 to 8.0): > 100 mg/mL | Solubility in water ([8]; water): only slightly soluble | apoptosis of BMSCs [9]: much weaker effects | sensitivity of MWCL-1 cells to apoptosis by B-cell-targeted inhibitors in presence of BMSCs ([3]; HS-27A BMSC coculture (FIG. 5A-F)): restored the sensitivity | IL-6 release [10]: no significant effect | proteolytic cleavage of caspase-3 and PARP [11]: minor effects | BM stroma-induced IgM hypersecretion, combination with ixazomib ([12]; BMSC: HS-27A cells, 72 hours (FIG. 16)): Synergizes | BMSC-induced IgM hypersecretion ([12]; HS-27A coculture, 48 or 72 hours (FIG. 6A-G)): inhibited | tolerability, treatment-related serious adverse events [13]: well tolerated, with no treatment-related serious adverse events | migration toward BMSC-secreted CXCL12 ([14]; HS-27A BMSCs in lower chamber (FIG. 3C)): significantly inhibited | migration toward a CXCL12 gradient ([14]; pretreatment of MWCL-1 cells (FIG. 3B)): significantly inhibited | CXCL12-induced signaling pathway in ALL cells [15]: effectively block | preestablished adhesion of ALL cells to stroma [15]: disrupt | sensitivity of ALL cells to vincristine and nilotinib [15]: increase sensitivity | stromal-induced migration of ALL cells [15]: block | adhesion of WM cells to BMSCs [16]: dose-dependent decrease | cytotoxicity in MWCL-1 cells [17]: not sufficient to induce cytotoxicity | CXCL12-mediated Ca2+ mobilization [18]: blocked

CC(C)C[C@H](NC(=O)CNC(=O)c1cc(Cl)ccc1Cl)B(O)O [Ixazomib, reference compound]
killing / apoptosis of MWCL-1 tumor cells [2, 23]: Kills

CN(CC(=O)N(Cc1ccc(C2CCCCC2)cc1)c1ccc(C(=O)O)c(O)c1)S(=O)(=O)c1c(F)c(F)c(F)c(F)c1F [BP-1-102]
IL-6-mediated IgM secretion [19]: inhibited

CCc1cc(O)c(F)cc1-c1ccc2c(-c3nc4c([nH]3)CCN(C(=O)c3cnc(N5CCCCC5)cn3)C4)n[nH]c2c1 [PF-06263276]
IL-6-mediated IgM secretion [19]: inhibited

ulocuplumab: monoclonal anti-CXCR4 antibody
tumor infiltration in BM, spleen, and lymph nodes [20]: reduced

Tocilizumab: IL-6R antibody tocilizumab (Actemra, Genentech)
IL-6-mediated IgM secretion [19]: inhibited | IgM secretion [21]: reduces | tumor growth [21]: reduces | % apoptotic cells [3]: neither Ibrutinib nor Tocilizumab as a single therapy increased | increase of CXCR4 surface expression by HS-27A BMSC coculture [22]: inhibited
